Data on 4 molecules can be found in patent publication US20250127698A1, “Hair Perming Compositions With Amine Derivatives” (ELC Management LLC, priority 2023, published 2025).

The nature of data set [1]: DSC keratin denaturation temperature change after straightening treatment. Also on record: species or system human. The following applies: for ΔT (TUntreated−TAlkalizer, keratin denaturation temperature): Type 3 Caucasian hair after straightening, larger ΔT indicates more damage; for damage to hair (in words): hair straightening treatment, Type 3 Caucasian hair. From the text: (§1) This damage occurs at the level of keratin proteins.
(§2) Untreated hair was used as a control.
(§3) A larger ΔT indicates more damage.

The conditions of data set [2]: active component of alkalizer; cited from earlier work.
Data set [3] is described as follows: DSC keratin denaturation temperature change after curling treatment. The following applies: for ΔT (TUntreated−TAlkalizer, keratin denaturation temperature): Type 1 Chinese hair after curling treatment, larger ΔT indicates more damage; for damage to hair (in words): hair curling treatment, Type 1 Chinese hair. Also on record: species or system human.
Source text: as §1, §2, §3

Assay in data set [4]: as above
The following applies: for ΔT (TUntreated−TAlkalizer, keratin denaturation temperature): Type 1 Caucasian hair after curling treatment, larger ΔT indicates more damage.
Experimental: It is known that the denaturation of keratin in hair can be detected by differential scanning calorimetry (DSC). DSC is a thermal analysis technique used to measure phase transition temperatures and heat of transformation (enthalpy) for endothermic and exothermic reactions.
For all of the test samples discussed above, DSC measurements were performed using the Discovery DSC 2500 (from TA Instruments. New Castle, DE). The experiments were carried out over a temperature range of 40° C. to 200° C., with a scan rate of 5° C./min under nitrogen protection. DSC samples were prepared by cutting tress samples into pieces (0.1 to 1.0 mm in size) and weighing. The hair samples were mixed with deionized water, and then sealed in high volume pans for at least 6 hours before measuring. The phase transition temperature (keratin denaturation temperature) of each hair sample was analyzed using TRIOS software (Discovery DSC 2500). Untreated hair was used as a control.
Each hair sample was analyzed at least twice, and the average temperature was obtained for data analysis. This was subtracted from the denaturation temperature of the control sample (ΔT=TUntreated−TAlkalizer). A larger ΔT indicates more damage.

The nature of data set [5]: pH of hair perming composition. It is filed as physicochemical. The following applies: for pH: hair perming composition: base of Table 2 (7.50% thioglycolic acid) plus alkalizer, same molar percentage of alkalizer. An excerpt: For testing, we prepared the hair perming compositions shown by Tables 2 and 3, below. […] All compositions contain the same molar percentage of alkalizer, the water content being adjusted accordingly.

Data set [6] can be described thus: Straightening efficiency after hair straightening treatment. Also on record: species or system human. The following applies: Type 2C Caucasian hair; 1 wash with 5% SDS solution. From the text: The ability of each test composition to straighten curly hair was established by measuring “straightening efficiency”. Straightening efficiency represents the degree to which curly hair is made straight by a hair straightening treatment. We start with a curly, untreated hair tress of length Lu. The tress has an ideal straight length of Li, which is the length of the untreated tress when flat ironed to its maximum, straight length. After treatment the tress has a length of Lt. Straightening efficiency is the gain in length as a percentage of the maximum possible gain in length. […] A straightening efficiency of 100% means that the treated tress retained the maximum possible length.
(§4) Two types of hair samples were tested for curling; mixed sourced virgin Type 1Caucasian hair, and single sourced virgin Type 1 hair. For straightening, mixed sourced virgin Type 2C (very wavy) Caucasian hair was tested. Hair straightening test samples were prepared by collecting hair fibers into tresses, and clamping each tress at both ends. For those test samples that were to undergo a straightening treatment, the length, Lu, was measured between two previously determined points.
(§5) Each hair tress was wetted (reverse osmosis water). For curling, each hair tress was wound along a peg board to form a sine wave pattern of five cycles, as described above. For straightening, each hair tress was held on a board in a straight conformation, tension was applied, and the ends of the tress were secured. All test samples (curling or straightening) were allowed to dry before proceeding. Each board with a hair tress test sample was dipped for 10 seconds into a beaker with one of the hair perming compositions. After removing a board from solution, it was immediately placed in an oven for 20 minutes at 37° C. (normal body temperature). The test sample was removed from the oven, and rinsed for five minutes with 37° C. water, being careful not to allow the running water to fall directly on the hair tresses. After blotting with a paper towel, test samples were allowed to rest for five minutes at room temperature, for air oxidation to occur. The hair straightening test samples were removed from the board, blow dried and flat ironed at 200° C., which is commonly done in salon practice. At this point, the ideal length, Li, was measured between the two previously determined point mentioned above. Thereafter, each sample was rebound to the board.
(§6) Each bound hair tress was submerged for ten seconds in a 2% solution of H2O2 to neutralize the reducing agent and promote S-S bond formation, so that the hair tress would retain a desired shape (sine wave pattern or straight) when removed from the board. Each hair tress rested at room temperature for about five minutes, then was rinsed under 37° C. running water for five minutes, and subsequently blotted with a paper towel. Each test sample hair tress was removed from the board, laid on a flat surface, and allowed to dry. The fully permed dry tresses were washed in 5% SDS (sodium dodecyl sulfate) solution (which simulates salon practice) and allowed to dry overnight.
(§7) For the curling test samples, the length, Lt, of five waves, crest to crest was measured. For the straightening test samples, the final length, Lt, was measured between the two previously determined points. At this point, differential scanning calorimetry (DSC) measurements were made on a portion of each hair tress test sample. Also, for longevity performance, each tress was subjected to the equivalent of eight hand washings in 5% SDS solution using the GyroWash color fastness to laundering tester, and allowed to dry, before another length measurement, Lt, was made.
Straightening efficiencies were computed using Equation 2.
[formula] • Lu=length of the untreated hair tress • Lt=length of treated hair tress • Li=ideal length of straightened hair
(Li−Lu) represents the maximum possible increase in length as a result of treatment. […]

Data set [7] is described as follows: Curl efficiency after hair curling treatment. The conditions noted are these: for Curl Efficiency (%) After Treatment, 1 Wash and Dry: 1 wash with 5% SDS solution; for Curl Efficiency (%) After Treatment, 8 Washes and Dry: equivalent of 8 washes with 5% SDS solution. Also on record: species or system human; % Change In Curl Efficiency From 1 to 8 Washes: concentration or dose not given beside the values.
Source text: (§8) The ability of each test composition to curl hair was established by measuring “curl efficiency”. Curl efficiency is a measure of curl tightness following a hair curling treatment. The higher the efficiency, the tighter the curl. We used a well-known method of measuring curl efficiency, wherein a portion of untreated straight hair of known length, Lu, is secured on an arrangement of pegs to form a sine wave pattern of five cycles, crest-to-crest. Because the pegs are fixed, the ideal length, Li, of the portion of hair when arranged into the five-cycle wave pattern, is known. Starting with a straight swatch of hair of length Lu, the ideal outcome would be a curled swatch of hair with a length of Li. Curl efficiency is a measure of how closely the ideal is attained.
as §4, §5, §6, §7
(§9) Curl efficiencies were computed using Equation 1.
(§10) [formula] • Lu=length of the untreated hair tress • Lt=crest-to-crest length of the five-wave portion of the treated hair tress • Li=ideal length of curled hair […]

A short description of data set [8]: Curl efficiency after hair curling treatment. Also on record: species or system human. The following applies: for Curl Efficiency (%) After Treatment, 1 Wash and Dry: 1 wash with 5% SDS solution; for Curl Efficiency (%) After Treatment, 8 Washes and Dry: equivalent of 8 washes with 5% SDS solution.
Source text: as §8, §4, §5, §6, §7, §9, §10

As a reminder, the pKa is the pH at which an ionisable group is half protonated. For the molecule `CC(C)(N)CO` [AMP, Aminomethyl propanol, reference compound], the “ΔT (TUntreated−TAlkalizer, keratin denaturation temperature)” value in data set [1] was 2.60 °C; in data set [3], 1.65 C. °; in data set [4], 3.11 °C. In addition, in data set [2], the pKa is 9.82.
Consider `[Na+].[OH-]` [NaOH, reference compound], for which the “pH of alkalizer composition” value in data set [5] (Table 7), in data set [5] (Table 8) and in data set [5] (Table 9) was 10.56 throughout. Besides, the pH in data set [5] is given as 10.56. In addition, the “Straightening Efficiency (%) After Treatment, 1 Wash and Dry” value in data set [6] came out at 65.71%. The “ΔT (TUntreated−TAlkalizer, keratin denaturation temperature)” value in data set [1] came to 4.60 °C; in data set [3], 5.60 C. °; in data set [4], 6.34 °C. In addition, the entries for the “% Change In Curl Efficiency From 1 to 8 Washes” value in data set [7] (Type 1 Chinese hair) and in data set [8] (Type 1 Caucasian hair) were −19.92% and −17.64%, respectively. The “Curl Efficiency (%) After Treatment, 1 Wash and Dry” value in data set [7] (Type 1 Chinese hair) is reported as 54.86%; in data set [8] (Type 1 Caucasian hair), 47.66%. Further, the “Curl Efficiency (%) After Treatment, 8 Washes and Dry” value in data set [7] (Type 1 Chinese hair) is recorded as 43.93%; in data set [8] (Type 1 Caucasian hair), 39.25%.
Regarding `NC(CO)CO` [Serinol, 2-Amino-1,3-propanediol], the “pH of alkalizer composition” value in data set [5] (Table 7), in data set [5] (Table 8) and in data set [5] (Table 9) was 8.68 in each case. In addition, the pH in data set [5] is given as 8.68. Also, the “Straightening Efficiency (%) After Treatment, 1 Wash and Dry” value in data set [6] was 88.24%. Besides, the “ΔT (TUntreated−TAlkalizer, keratin denaturation temperature)” value in data set [1] turned out to be 0.50 °C; in data set [3] it was 0.62 C. °; in data set [4], 1.76 °C. The “damage to hair (in words)” value in data set [1] is “less damage than ammonium hydroxide”; in data set [3], “less damage than ammonium hydroxide”; in data set [4] (hair curling treatment, Type 1 Caucasian hair) it was “less damage than ammonium hydroxide”. Also, the “% Change In Curl Efficiency From 1 to 8 Washes” value is −14.82% in data set [7] (Type 1 Chinese hair) and −8.15% in data set [8] (Type 1 Caucasian hair). Also, the “Curl Efficiency (%) After Treatment, 1 Wash and Dry” value in data set [7] (Type 1 Chinese hair) stood at 50.47%; in data set [8] (Type 1 Caucasian hair), 45.79%. In addition, the “Curl Efficiency (%) After Treatment, 8 Washes and Dry” value in data set [7] (Type 1 Chinese hair) is recorded as 42.99%; in data set [8] (Type 1 Caucasian hair), 42.06%.
As to DL-2-amino-1-propanol [DL-2-AP], the “pH of alkalizer composition” value in data set [5] (Table 7), in data set [5] (Table 8) and in data set [5] (Table 9) was 9.45 each time. Further, the pH in data set [5] is recorded as 9.45. In data set [6], the “Straightening Efficiency (%) After Treatment, 1 Wash and Dry” value is 95.35%. For the same molecule, the “ΔT (TUntreated−TAlkalizer, keratin denaturation temperature)” value in data set [1] is 3.20 °C; in data set [3], 3.49 C. °; in data set [4], 3.95 °C. Besides, the “damage to hair (in words)” value in data set [1] is on record as “more damage than ammonium hydroxide, MEA or AMP”; in data set [3], “did not perform as well as the other alkalizers”. The “curl after the equivalent of 8 washes (in words)” value in data set [7] (Chinese hair) and in data set [8] (Caucasian hair) was “still had the most curl” throughout. Further, the “curl lost after the equivalent of 8 washes, as percentage of initial curl (in words)” value in data set [7] (Chinese hair) and in data set [8] (Caucasian hair) was “lost the most curl of the tested samples” in each case. Further, the “% Change In Curl Efficiency From 1 to 8 Washes” value was −21.01% in data set [7] (Type 1 Chinese hair) and −11.11% in data set [8] (Type 1 Caucasian hair). Further, the “imparting curl (in words)” value in data set [7] (Type 1 Chinese hair) and in data set [8] (Type 1 Caucasian hair) was “best at imparting curl” each time. Also, the figures for the “Curl Efficiency (%) After Treatment, 1 Wash and Dry” value in data set [7] (Type 1 Chinese hair) and in data set [8] (Type 1 Caucasian hair) were 69.81% and 50.47%, respectively. Moreover, the “Curl Efficiency (%) After Treatment, 8 Washes and Dry” value in data set [7] (Type 1 Chinese hair) was found to be 55.14%; in data set [8] (Type 1 Caucasian hair) it was 44.86%. Moreover, in data set [2], the pKa is 9.6.
